What was measured:
254 Japanese subjects = assay: Taste recognition threshold measurement (staircase method); type: in vivo, human; conditions: for mean recognition threshold by Gaussian fit analysis: center±S.E. of gaussian curve
From the text: A total of 254 healthy, non-obese, non-diabetic Japanese volunteers [male/female: 141/113, age: 20–36, body mass index (BMI); 16.5–24.8] participated in this study. The purpose of the study as well as the methods and procedure were explained to the participants and the patients in this manuscript have given written informed consent. All protocols were approved by the local ethics committee at Kyushu University. Subjects were asked to refrain from consuming alcohol the day before testing, caffeine on the day of testing, and food during the experimentation period. The inclusion criteria were satisfactory state of oral hygiene, non-smoking, regular work, sleep, and meal schedules.
As MSG contains sodium, great care was taken to compare individual sensitivities to MSG relative to NaCl. […] The differences in concentrations in the present study were in 0.3 log steps, which mean step-wise increases in concentration by a factor of 2.0. All solutions were made up in distilled water and used at room temperature. The testing procedure was the staircase-method modified from Pasquet et al.. Each subject evaluated all 7 tastants. The seven series of solutions were presented one after another within a single section. Within each series, the solutions with each 2.0 ml were applied to the whole tongue of each subject with a pipet in order of ascending concentrations. The subjects were asked not to swallow test solutions and rinse their mouth between two solutions with distilled water. The subject was requested to correctly name the taste quality in each series. Once the taste of two successive concentrations was recognized successfully, the subject was given the previous unrecognized concentration (first reversal). The points at which concentration sequence changed from a decrease to an increase or vice versa were designated “reversals”. The procedure was terminated after five reversals, and the threshold was calculated as the mean of the concentration values of the last four reversals.
Student's t-test was used for detection of differences in the mean recognition thresholds between males and females. The χ^2 test was used for checking Hardy-Weinberg Equilibrium (HWE) for the genotype frequencies in samples to control genotyping errors, for detection of differences in genotype and allele frequencies between high and low taste recognition threshold groups. Yates'χ^2 test was used when the number was less than 10. The mean values (the center±S.E. of gaussian curve on X-axis) in the distribution of recognition thresholds defined by TAS1R1/TAS1R3 haplotypes (TAS1R1-372A/TAS1R3-757R homozygotes, TAS1R1-372T/TAS1R3-757R homozygotes, homo- and heterozygotes containing TAS1R3-757C) were calculated using gauss fit function of Origin 5.0 (OriginLab Corp). For Ca^2+ imaging analysis, data were normalized to response to 10 µM ISO, and mean values (±S.E.) were calculated from 10∼18 independent analyses. EC50 values were calculated from individual cumulative concentration-response data using sigmoid fit functions of Origin 5.0. One factor ANOVAs were conducted for detection of differences in the distributions of recognition thresholds for umami substances among 3 groups defined by TAS1R1/TAS1R3 haplotypes, and in the responses to 5, 20 and 50 mM MSG or 0.3, 5 and 50 mM M+I among TAS1R1/TAS1R3 variants in Ca^2+ imaging analysis. When the ANOVA was significant, post-hoc Student's t-test or Fisher's PLSD test was performed to compare individual means at each umami compound or concentration. Significance level was 0.05.

[1] = system: Mock-transfected HEK cells; assay: Ca2+ imaging in mock-transfected HEK cells; type: cell-based, human; conditions: without the three genes, Gα16-i3 alone, Gα16-i3/TAS1R1 without TAS1R3, Gα16-i3/TAS1R3 without TAS1R1
Experimental: HEK293 cells were cultured at 37°C under a humidified atmosphere containing 5% CO2 in Dulbecco's modified Eagle's medium supplemented with 10% fetal bovine serum. To obtain reproducible Ca^2+ responses, cells were split every 2 days before cells become confluent. Cells were discarded after 2 months of passages and new cells were prepared from frozen-stock. For calcium imaging experiments, cells were seeded onto a 35 mm recording chamber or poly-D-lysine coated 96-well black-wall, clear-bottom recording plates. […] The transfection efficiencies were estimated by visualizing DsRed fluorescence (data not shown) or by immunocytochemistry of TAS1R3, and were typically 50∼55% (Figure S4). […]
Two Ca^2+ imaging systems were used. […] Taste solutions diluted in HBSS were applied sequentially to the cells for 30 s with a peristaltic pump at a flow rate of 1.5 ml/min, and fluorescence images were obtained using a S Fluor ×20/0.75 objective lens (Nikon) via a cooled-CCD camera (C6790, Hamamatsu Photonics) fitted to a TE300 microscope (Nikon). Acquisition and analysis of these fluorescence images used AquaCosmos software (v. 1.3, Hamamatsu Photonics). […] Responses were measured from 30 individual responding cells. […]

N[C@@H](CCC(=O)O)C(=O)[O-].[Na+] [MSG, monosodium glutamate]
mean recognition threshold by Gaussian fit analysis (254 Japanese subjects; AR homozygotes (372A/757R)): 7.51 ± 0.44 mM | mean (±S.E.) recognition threshold (254 Japanese subjects; AR homozygotes (372A/757R, n = 84)): 6.23 ± 0.45 mM | mean recognition threshold by Gaussian fit analysis (254 Japanese subjects; TR homozygotes (372T/757R)): 4.38 ± 0.29 mM | mean (±S.E.) recognition threshold (254 Japanese subjects; TR homozygotes (372T/757R, n = 37)): 4.65 ± 0.47 mM | difference of mean recognition thresholds among 3 groups divided by TAS1R1-A372T and TAS1R3-R757C haplotypes (254 Japanese subjects; TR<AR<TAS1R3-757C): 2∼3 fold | mean (±S.E.) recognition threshold (254 Japanese subjects; all subjects (254 Japanese, both genders)): 7.66 ± 0.43 mM | mean recognition threshold (254 Japanese subjects; female subjects): 6.91 ± 0.62 mM | mean (±S.E.) recognition threshold (254 Japanese subjects; homo- and heterozygotes containing TAS1R3-757C (n = 39)): 8.43 ± 0.98 mM | mean recognition threshold by Gaussian fit analysis (254 Japanese subjects; homo- and heterozygotes containing TAS1R3-757C): 8.60 ± 0.20 mM | mean recognition threshold (254 Japanese subjects; male subjects): 8.27 ± 0.60 mM | Ca2+ response of mock-transfected HEK cells [1]: did not respond
